Experimental data reported in US20240343704A1, “HALO-SUBSTITUTED AMINO PYRIDINE COMPOUNDS AS INHIBITORS OF THE HAEMATOPOIETIC PROGENITOR KINASE 1 (HPK1)” (priority 2021, published 2024).
Read-outs that look alike come from different tables or passages of the source.

Legend:
[1] = target: T1, Recombinant (1-346) HPK1 (h) (Homo sapiens, UniProt Q92918); assay: HPK1 Human STE Kinase Enzymatic Radiometric Assay; assay type: biochemical
T1 construct: Recombinant (1-346) HPK1 (h) is incubated with 8 mM MOPS pH 7.0
T1 sequence (Q92918 1-346): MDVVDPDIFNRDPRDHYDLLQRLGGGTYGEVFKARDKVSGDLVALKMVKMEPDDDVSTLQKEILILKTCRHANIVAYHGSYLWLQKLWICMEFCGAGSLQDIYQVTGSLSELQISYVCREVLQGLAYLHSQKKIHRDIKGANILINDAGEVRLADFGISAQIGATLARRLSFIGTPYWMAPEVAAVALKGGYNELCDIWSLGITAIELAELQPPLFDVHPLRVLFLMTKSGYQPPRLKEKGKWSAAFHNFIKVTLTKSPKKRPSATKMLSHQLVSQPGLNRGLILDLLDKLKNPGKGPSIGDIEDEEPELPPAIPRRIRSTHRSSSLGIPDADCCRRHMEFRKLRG
Protocol: A stock solution of 10 mM of test compound is prepared in DMSO. The compound plate was prepared by 3-fold and 9-point serial dilutions. […] The reaction is initiated by The addition of the Mg/ATP mix. After incubation for 40 minutes at RT, the reaction is stopped by the addition of phosphoric acid to a concentration of 0.5%.

[2] = target: Lck (h) (Homo sapiens, UniProt P06239); assay: Lck Human  Kinase Enzymatic Radiometric Assay; assay type: biochemical
In short: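 Substrate 33P-incorporation measured by scintillation counting after spotting on P30 filtermat and phosphoric acid washes. Human Lck reacted 40 min at RT in 50 mM Tris pH 7.5 with 10 mM MgAcetate, [gamma-33P]-ATP, 250 uM Cdc2 peptide, 0.1 mM EGTA and 0.1 mM Na3VO4.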

Chain of Lck (h) (P06239 whole entry): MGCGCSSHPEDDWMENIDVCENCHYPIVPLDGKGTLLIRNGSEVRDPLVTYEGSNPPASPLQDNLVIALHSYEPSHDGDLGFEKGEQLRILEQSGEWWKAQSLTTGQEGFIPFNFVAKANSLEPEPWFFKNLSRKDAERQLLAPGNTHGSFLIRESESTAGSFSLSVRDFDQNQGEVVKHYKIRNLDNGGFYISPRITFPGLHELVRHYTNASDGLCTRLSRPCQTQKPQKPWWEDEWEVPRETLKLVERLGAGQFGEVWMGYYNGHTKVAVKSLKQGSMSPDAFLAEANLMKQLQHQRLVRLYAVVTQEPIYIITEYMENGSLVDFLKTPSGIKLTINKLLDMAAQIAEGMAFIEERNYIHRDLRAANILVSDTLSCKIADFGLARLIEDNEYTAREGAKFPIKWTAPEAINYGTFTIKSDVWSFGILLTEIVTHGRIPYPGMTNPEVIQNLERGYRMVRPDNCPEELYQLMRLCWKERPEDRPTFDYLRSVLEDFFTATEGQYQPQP

SMILES: Nc1nc(F)c(-c2ccc3c(c2)CCC2(CCNCC2)O3)cc1-c1ccc2c(c1)CCNC2=O [I-183, 6-(2-amino-6-fluoro-5-(spiro[chromane-2,4′-piperidin]-6-yl)pyridin-3-yl)-3,4-dihydroisoquinolin-1(2H)-one]
- IC50 ([1]; read-out: HPK1 IC50 nM Range*): 0.1 to 10 nM
- IC50 ([2]; read-out: Lck IC50 nM Range*): > 1000 nM

SMILES: N#Cc1cc(-c2cc(-c3ccc4c(c3)CCNC4=O)c(N)nc2F)ccc1OC1CCNCC1 [I-184, 5-(6-amino-2-fluoro-5-(1-oxo-1,2,3,4-tetrahydroisoquinolin-6-yl)pyridin-3-yl)-2-(piperidin-4-yloxy)benzonitrile]
- IC50 ([1]; read-out: HPK1 IC50 nM Range*): 11 to 100 nM
- IC50 ([2]; read-out: Lck IC50 nM Range*): > 1000 nM

SMILES: Nc1nc(F)c(-c2ccc(N3CCNCC3)c(C(F)(F)F)c2)cc1-c1ccc2c(c1)CCNC2=O [I-185, 6-(2-amino-6-fluoro-5-(4-(piperazin-1-yl)-3-(trifluoromethyl)phenyl)pyridin-3-yl)-3,4-dihydroisoquinolin-1(2H)-one]
- IC50 ([1]; read-out: HPK1 IC50 nM Range*): 0.1 to 10 nM
- IC50 ([2]; read-out: Lck IC50 nM Range*): > 1000 nM

SMILES: Nc1nc(F)c(-c2ccc(OC3CCN(CC(F)(F)F)CC3)cc2)cc1-c1ccc2c(c1)CCNC2=O [I-186, 6-(2-amino-6-fluoro-5-(4-((1-(2,2,2-trifluoroethyl)piperidin-4-yl)oxy)phenyl)pyridin-3-yl)-3,4-dihydroisoquinolin-1(2H)-one]
- IC50 ([1]; read-out: HPK1 IC50 nM Range*): 11 to 100 nM
- IC50 ([2]; read-out: Lck IC50 nM Range*): > 1000 nM

SMILES: Nc1nc(F)c(-c2ccc(OC3CCN(CCC(F)(F)F)CC3)cc2)cc1-c1ccc2c(c1)CCNC2=O [I-187, 6-(2-amino-6-fluoro-5-(4-((1-(3,3,3-trifluoropropyl)piperidin-4-yl)oxy)phenyl)pyridin-3-yl)-3,4-dihydroisoquinolin-1(2H)-one]
- IC50 ([1]; read-out: HPK1 IC50 nM Range*): 0.1 to 10 nM
- IC50 ([2]; read-out: Lck IC50 nM Range*): > 1000 nM

SMILES: Nc1nc(F)c(-c2ccc(OC3CCN(CCCC(F)(F)F)CC3)cc2)cc1-c1ccc2c(c1)CCNC2=O [I-188, 6-(2-amino-6-fluoro-5-(4-((1-(4,4,4-trifluorobutyl)piperidin-4-yl)oxy)phenyl)pyridin-3-yl)-3,4-dihydroisoquinolin-1(2H)-one]
- IC50 ([1]; read-out: HPK1 IC50 nM Range*): 0.1 to 10 nM
- IC50 ([2]; read-out: Lck IC50 nM Range*): > 1000 nM

SMILES: COCCN1CCC(Oc2ccc(-c3cc(-c4ccc5c(c4)CCNC5=O)c(N)nc3F)cc2)CC1 [I-189, 6-(2-amino-6-fluoro-5-(4-((1-(2-methoxyethyl)piperidin-4-yl)oxy)phenyl)pyridin-3-yl)-3,4-dihydroisoquinolin-1(2H)-one]
- IC50 ([1]; read-out: HPK1 IC50 nM Range*): 0.1 to 10 nM
- IC50 ([2]; read-out: Lck IC50 nM Range*): > 1000 nM

SMILES: CC(=O)N1CCC2(CC1)OCc1cc(-c3cc(-c4ccc5c(c4)CCNC5=O)c(N)nc3F)ccc1O2 [I-191, 6-(5-(1′-acetyl-4H-spiro[benzo[d][1,3]dioxine-2,4′-piperidin]-6-yl)-2-amino-6-fluoropyridin-3-yl)-3,4-dihydroisoquinolin-1(2H)-one]
- IC50 [1]: 0.1 to 10 nM
- IC50 [2]: > 1000 nM

SMILES: CC(=O)N1CCC2(CC1)CC(=O)c1cc(-c3cc(-c4ccc5c(c4)CCNC5=O)c(N)nc3F)ccc1O2 [I-192, 1′-acetyl-6-(6-amino-2-fluoro-5-(1-oxo-1,2,3,4-tetrahydroisoquinolin-6-yl)pyridin-3-yl)spiro[chromane-2,4′-piperidin]-4-one]
- IC50 ([1]; read-out: HPK1 IC50 nM Range*): 0.1 to 10 nM
- IC50 ([2]; read-out: Lck IC50 nM Range*): > 1000 nM

SMILES: CC(=O)N1CCC2(CCc3cc(-c4cc(-c5ccc6c(c5)CCNC6=O)c(N)nc4F)ccc3O2)CC1 [I-193, 6-(5-(1′-acetylspiro[chromane-2,4′-piperidin]-6-yl)-2-amino-6-fluoropyridin-3-yl)-3,4-dihydroisoquinolin-1(2H)-one]
- IC50 ([1]; read-out: HPK1 IC50 nM Range*): 0.1 to 10 nM
- IC50 ([2]; read-out: Lck IC50 nM Range*): > 1000 nM

SMILES: CC(=O)N1CCC(Oc2ccc(-c3cc(-c4ccc5c(c4)CCNC5=O)c(N)nc3F)cc2C#N)CC1 [I-194, 2-((1-acetylpiperidin-4-yl)oxy)-5-(6-amino-2-fluoro-5-(1-oxo-1,2,3,4-tetrahydroisoquinolin-6-yl)pyridin-3-yl)benzonitrile]
- IC50 ([1]; read-out: HPK1 IC50 nM Range*): 0.1 to 10 nM
- IC50 ([2]; read-out: Lck IC50 nM Range*): > 1000 nM

SMILES: Nc1nc(F)c(-c2ccc3c(c2)COC2(CCN(CC(F)(F)F)CC2)O3)cc1-c1ccc2c(c1)CCNC2=O [I-195, 6-(2-amino-6-fluoro-5-(1′-(2,2,2-trifluoroethyl)-4H-spiro[benzo[d][1,3]dioxine-2,4′-piperidin]-6-yl)pyridin-3-yl)-3,4-dihydroisoquinolin-1(2H)-one]
- IC50 ([1]; read-out: HPK1 IC50 nM Range*): 11 to 100 nM
- IC50 ([2]; read-out: Lck IC50 nM Range*): > 1000 nM

SMILES: Nc1nc(F)c(-c2ccc3c(c2)C(=O)CC2(CCN(CC(F)(F)F)CC2)O3)cc1-c1ccc2c(c1)CCNC2=O [I-196, 6-(6-amino-2-fluoro-5-(1-oxo-1,2,3,4-tetrahydroisoquinolin-6-yl)pyridin-3-yl)-1′-(2,2,2-trifluoroethyl)spiro[chromane-2,4′-piperidin]-4-one]
- IC50 ([1]; read-out: HPK1 IC50 nM Range*): 0.1 to 10 nM
- IC50 ([2]; read-out: Lck IC50 nM Range*): > 1000 nM

SMILES: Nc1nc(F)c(-c2ccc3c(c2)CCC2(CCN(CC(F)(F)F)CC2)O3)cc1-c1ccc2c(c1)CCNC2=O [I-197, 6-(2-amino-6-fluoro-5-(1′-(2,2,2-trifluoroethyl)spiro[chromane-2,4′-piperidin]-6-yl)pyridin-3-yl)-3,4-dihydroisoquinolin-1(2H)-one]
- IC50 ([1]; read-out: HPK1 IC50 nM Range*): 11 to 100 nM
- IC50 ([2]; read-out: Lck IC50 nM Range*): > 1000 nM

SMILES: N#Cc1cc(-c2cc(-c3ccc4c(c3)CCNC4=O)c(N)nc2F)ccc1OC1CCN(CC(F)(F)F)CC1 [I-198, 5-(6-amino-2-fluoro-5-(1-oxo-1,2,3,4-tetrahydroisoquinolin-6-yl)pyridin-3-yl)-2-((1-(2,2,2-trifluoroethyl)piperidin-4-yl)oxy)benzonitrile]
- IC50 ([1]; read-out: HPK1 IC50 nM Range*): 11 to 100 nM
- IC50 ([2]; read-out: Lck IC50 nM Range*): > 1000 nM

SMILES: CC(=O)N1CCC(Oc2ccc(-c3cc(-c4ccc5c(c4)CCNC5=O)c(N)nc3F)cc2C(F)(F)F)CC1 [I-199, 6-(5-(4-((1-acetylpiperidin-4-yl)oxy)-3-(trifluoromethyl)phenyl)-2-amino-6-fluoropyridin-3-yl)-3,4-dihydroisoquinolin-1(2H)-one]
- IC50 ([1]; read-out: HPK1 IC50 nM Range*): 11 to 100 nM
- IC50 ([2]; read-out: Lck IC50 nM Range*): > 1000 nM

SMILES: CC(=O)N1CCN(c2ccc(-c3cc(-c4ccc5c(c4)CCNC5=O)c(N)nc3F)cc2C(F)(F)F)CC1 [I-200, 6-(5-(4-(4-acetylpiperazin-1-yl)-3-(trifluoromethyl)phenyl)-2-amino-6-fluoropyridin-3-yl)-3,4-dihydroisoquinolin-1(2H)-one]
- IC50 ([1]; read-out: HPK1 IC50 nM Range*): 0.1 to 10 nM
- IC50 ([2]; read-out: Lck IC50 nM Range*): > 1000 nM

SMILES: Nc1nc(F)c(-c2ccc(OC3CCN(CC(F)(F)F)CC3)c(C(F)(F)F)c2)cc1-c1ccc2c(c1)CCNC2=O [I-201, 6-(2-amino-6-fluoro-5-(4-((1-(2,2,2-trifluoroethyl)piperidin-4-yl)oxy)-3-(trifluoromethyl)phenyl)pyridin-3-yl)-3,4-dihydroisoquinolin-1(2H)-one]
- IC50 ([1]; read-out: HPK1 IC50 nM Range*): 101 to 1000 nM
- IC50 ([2]; read-out: Lck IC50 nM Range*): > 1000 nM

SMILES: Nc1nc(F)c(-c2ccc(N3CCN(CC(F)(F)F)CC3)c(C(F)(F)F)c2)cc1-c1ccc2c(c1)CCNC2=O [I-202, 6-(2-amino-6-fluoro-5-(4-(4-(2,2,2-trifluoroethyl)piperazin-1-yl)-3-(trifluoromethyl)phenyl)pyridin-3-yl)-3,4-dihydroisoquinolin-1(2H)-one]
- IC50 ([1]; read-out: HPK1 IC50 nM Range*): 11 to 100 nM
- IC50 ([2]; read-out: Lck IC50 nM Range*): > 1000 nM

SMILES: Nc1nc(F)c(-c2ccc(OC3CCN(C(=O)C4CC4)CC3)cc2)cc1-c1ccc2c(c1)CCNC2=O [I-203, 6-(2-amino-5-(4-((1-(cyclopropanecarbonyl)piperidin-4-yl)oxy)phenyl)-6-fluoropyridin-3-yl)-3,4-dihydroisoquinolin-1(2H)-one]
- IC50 ([1]; read-out: HPK1 IC50 nM Range*): 0.1 to 10 nM
- IC50 ([2]; read-out: Lck IC50 nM Range*): > 1000 nM

SMILES: Nc1nc(F)c(-c2ccc3c(c2)OCCCO3)cc1-c1ccc2c(c1)CCNC2=O [I-204, 6-(2-amino-5-(3,4-dihydro-2H-benzo[b][1,4]dioxepin-7-yl)-6-fluoropyridin-3-yl)-3,4-dihydroisoquinolin-1(2H)-one]
- IC50 ([1]; read-out: HPK1 IC50 nM Range*): 0.1 to 10 nM
- IC50 ([2]; read-out: Lck IC50 nM Range*): > 1000 nM
